Measurements published in the RepoRT retention time repository.
Counter-ions that a name gives are not always drawn.

Assay: RP, Thermo Scientific Hypersil GOLD, 1.9 µm, 40 °C, 0.4 mL/min; A: water + 0.1% formic acid, pH 3; B: acetonitrile + 0.1% formic acid, pH 3; gradient (min/%B) 0/0 1/0 11/100 13/100 14/0 16/0
Details: stereoisomer not certain

SMILES	LC retention time [min]
NC(N)=NCC(=O)O [GUANIDINOACETATE]	0.62
NCCC(=O)NC(Cc1cnc[nH]1)C(=O)O (stereo not given) [CARNOSINE]	0.59
NCCc1cc(O)c(O)cc1O [6-HYDROXYDOPAMINE]	0.77
CC(CCC(=O)O)C1CCC2C3CCC4CC(O)CCC4(C)C3CCC12C (stereo not given) [LITHOCHOLATE]	10.5
O=c1cccc(O)[nH]1 [2-6-DIHYDROXYPYRIDINE]	1.09
O=C(O)C1(O)CC(O)C(O)C(O)C1 (stereo not given) [QUINATE]	0.68
NC(CCCC(=O)O)C(=O)O (stereo not given) [AMINOADIPATE]	0.67
Cc1cn(C2CC(O)C(COP(=O)(O)O)O2)c(=O)[nH]c1=O (stereo not given) [THYMIDINE-MONOPHOSPHATE]	0.82
C[N+](C)(C)CCOP(=O)(O)OP(=O)([O-])OCC1OC(n2ccc(N)nc2=O)C(O)C1O (stereo not given) [CITICOLINE]	0.64
Nc1ccn(C2OC(COP(=O)(O)OP(=O)(O)O)C(O)C2O)c(=O)n1 (stereo not given) [CYTIDINE DIPHOSPHATE]	1.2
Nc1ccn(C2CC(O)C(COP(=O)(O)O)O2)c(=O)n1 (stereo not given) [DEOXYCYTIDINE MONOPHOSPHATE]	0.74
O=C(O)C=Cc1ccc(O)cc1 [4-COUMARATE]	5.43
O=C(O)C(=O)CCc1ccccc1 [2-oxo-4-phenyl-butyric acid]	6.35
NC(CCSCC(N)C(=O)O)C(=O)O (stereo not given) [CYSTATHIONINE]	0.61
O=c1ccn(C2CC(O)C(COP(=O)(O)O)O2)c(=O)[nH]1 (stereo not given) [DEOXYURIDINE-MONOPHOSPHATE]	0.82
CSCC1OC(n2cnc3c(N)ncnc32)C(O)C1O (stereo not given) [METHYLTHIOADENOSINE]	4.41
NC(CS(=O)(=O)O)C(=O)O (stereo not given) [CYSTEATE]	0.65
COc1cc(C(=O)O)ccc1O [Vanillic acid]	4.97
NC(CO)Cc1cnc[nH]1 (stereo not given) [HISTIDINOL]	0.54
Cc1ncc(C[n+]2csc(CCO)c2C)c(N)n1 [THIAMINE]	0.61

SMILES	LC retention time [min]
O=C1OC(C(O)CO)C(O)=C1O (stereo not given) [ASCORBATE]	0.78
O=C(O)c1cc(=O)c2ccccc2[nH]1 [Kynurenic acid]	4.67
OCC(O)c1ccc(O)c(O)c1 (stereo not given) [3-4-DIHYDROXYPHENYLGLYCOL]	0.92
NCC(O)CCC(N)C(=O)O (stereo not given) [5-HYDROXYLYSINE]	0.57
CC=CC=CC(=O)O [SORBATE]	6.15
NCCOP(=O)(O)OP(=O)(O)OCC1OC(n2ccc(N)nc2=O)C(O)C1O (stereo not given) [CDP-ETHANOLAMINE]	0.64
CCCCCCCCC=CCCCCCCCC(=O)OCC(O)COP(=O)([O-])OCC[N+](C)(C)C (stereo not given) [18-1_LysoPC]	0.61
O=C(O)c1ccc[nH]1 [PYRROLE-2-CARBOXYLATE]	4.3
Nc1nc2c(ncn2C2OC(COP(=O)(O)OP(=O)(O)OC3OC(CO)C(O)C(O)C3O)C(O)C2O)c(=O)[nH]1 (stereo not given) [GUANOSINE DIPHOSPHATE MANNOSE]	4.1
O=c1[nH]c(=O)c2ncn(C3OC(COP(=O)(O)O)C(O)C3O)c2[nH]1 (stereo not given) [XANTHOSINE-MONOPHOSPHATE]	0.83
CC(=O)C1(O)CCC2C3CCC4=CC(=O)CCC4(C)C3C(O)CC21C (stereo not given) [21-Deoxycortisol]	7.35
NC(CSSCC(N)C(=O)O)C(=O)O (stereo not given) [CYSTINE]	0.61
OCC1OC(OCC2OC(O)(CO)C(O)C2O)C(O)C(O)C1O (stereo not given) [PALATINOSE]	0.67
NC(=O)[C@@H](N)Cc1c[nH]c2ccccc12 [L-TRYPTOPHANAMIDE]	4.1
NC(=O)C1CCCN1C(=O)C(Cc1cnc[nH]1)NC(=O)C1CCC(=O)N1 (stereo not given) [THYROTROPIN RELEASING HORMONE]	0.84
COC1C(O)C(CO)OC1n1cnc2c(=O)[nH]cnc21 (stereo not given) [2'-O-Methylinosine]	3.73
c1ccc2ncccc2c1 [QUINOLINE]	3.83
CCC(NC(=O)CCC(N)C(=O)O)C(=O)NCC(=O)O (stereo not given) [OPHTHALMATE]	0.83
O=C1CC(c2ccc(O)cc2)Oc2cc(O)cc(O)c21 (stereo not given) [Naringenin]	7.04
O=c1[nH]c(=O)c2[nH]c(=O)[nH]c2[nH]1 [URATE]	0.81

SMILES	LC retention time [min]
NCCCCN [PUTRESCINE]	0.54
Cn1cnc(C[C@H](N)C(=O)O)c1 [1-METHYL-L-HISTIDINE]	0.59
NCCP(=O)(O)O [(2-AMINOETHYL)PHOSPHONATE]	0.63
NC(Cc1cc(I)c(Oc2ccc(O)c(I)c2)c(I)c1)C(=O)O (stereo not given) [LIOTHYRONINE]	6.99
CSCCC(NC(C)=O)C(=O)O (stereo not given) [N-ACETYLMETHIONINE]	4.61
O=C(O)CCCCCCCC(=O)O [AZELATE]	6.12
NCCc1ccc(O)cc1 [TYRAMINE]	1.24
O=CC(O)C1OC(=O)C(O)C1O [D-GLUCURONOLACTONE]	0.71
O=C(O)CCCCC1SCC2NC(=O)NC21 (stereo not given) [BIOTIN]	5.15
CC(=O)NC(CO)C(=O)O (stereo not given) [N-ACETYLSERINE]	0.78
O=C([O-])c1cc(=O)[nH]c(=O)[nH]1 [OROTATE]	0.77
CCCCCC(=O)OC(CC(=O)[O-])C[N+](C)(C)C [Hexanoyl-L-carnitine]	5.67
Cc1ccc(O)c(O)c1 [4-METHYLCATECHOL]	6.6
O=C(O)c1ccc2ccccc2n1 [2-QUINOLINECARBOXYLATE]	4.64
CC(CCC(=O)NCCS(=O)(=O)O)C1CCC2C3C(O)CC4CC(O)CCC4(C)C3CC(O)C12C (stereo not given) [taurocholic acid  sodium salt hydrate]	7.13
O=C(O)CC(C(=O)O)C(O)C(=O)O (stereo not given) [ISOCITRATE]	2.37
O=C1CCNC(=O)N1 [DIHYDROURACIL]	0.82
CCCCCCCCCCCCCCCCC(=O)O [HEPTADECANOATE]	12.7
CC(O)C(O)C1=Nc2c(nc(N)[nH]c2=O)NC1 [7-8-Dihydro-L-biopterin]	0.82
O=C(O)c1c(O)cccc1O [2-6-Dihydroxybenzoic acid]	5.12
